Laboratory results taken from patent US7135466B2 (Kirin Beer Kabushiki Kaisha, priority 1999, dated 2006).

Tests used:
[1] = target: T1, c-kit (Homo sapiens, UniProt P10721); experiment: Inhibitory activity against c-kit autophosphorylation (MO7e cells, h-SCF); assay type: cell-based; settings: for inhibition at 1 µM: Mo7e, figure within parentheses in −( ) or >1000( ), at 1000 nM; for IC50: MO7e cells, 50 ng/ml h-SCF, read-out: c-kit IC50
T1 construct: MO7e (human megakaryocytic leukemia cell line) which had been arrested for 20 hr; endogenous in cells; host or cells: MO7e human megakaryocytic leukemia cell line
T1 sequence (P10721 26-976): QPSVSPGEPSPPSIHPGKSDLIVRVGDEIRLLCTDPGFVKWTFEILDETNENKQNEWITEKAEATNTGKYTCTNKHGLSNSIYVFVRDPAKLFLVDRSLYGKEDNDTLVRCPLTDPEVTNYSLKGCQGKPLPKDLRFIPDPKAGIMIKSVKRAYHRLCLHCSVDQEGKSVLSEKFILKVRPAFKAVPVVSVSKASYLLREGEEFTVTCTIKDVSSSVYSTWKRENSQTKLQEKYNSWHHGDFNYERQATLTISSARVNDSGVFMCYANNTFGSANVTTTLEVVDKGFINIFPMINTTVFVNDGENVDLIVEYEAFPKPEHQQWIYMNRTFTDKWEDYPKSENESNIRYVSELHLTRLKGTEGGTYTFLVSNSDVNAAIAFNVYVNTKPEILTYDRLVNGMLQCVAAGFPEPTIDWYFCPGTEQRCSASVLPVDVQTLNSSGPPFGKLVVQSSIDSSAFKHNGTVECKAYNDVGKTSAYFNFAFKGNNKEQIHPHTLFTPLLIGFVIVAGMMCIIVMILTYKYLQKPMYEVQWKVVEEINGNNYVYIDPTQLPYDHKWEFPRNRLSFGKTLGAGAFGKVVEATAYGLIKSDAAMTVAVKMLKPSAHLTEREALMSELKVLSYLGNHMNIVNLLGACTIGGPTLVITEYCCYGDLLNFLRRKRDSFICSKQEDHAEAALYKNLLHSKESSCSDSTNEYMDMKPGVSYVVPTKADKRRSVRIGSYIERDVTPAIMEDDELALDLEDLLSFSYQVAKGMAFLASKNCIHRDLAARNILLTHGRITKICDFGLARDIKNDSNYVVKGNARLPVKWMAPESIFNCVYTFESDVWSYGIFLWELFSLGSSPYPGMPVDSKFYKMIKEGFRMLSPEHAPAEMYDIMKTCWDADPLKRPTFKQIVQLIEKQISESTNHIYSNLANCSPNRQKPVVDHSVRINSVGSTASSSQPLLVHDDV
Outline: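 MO7e human megakaryocytic leukemia cells, arrested 20 hr, treated with compound 1 hr, then stimulated with 50 ng/ml h-SCF for 5 min and lysed. Lysates captured on immobilized anti-phosphotyrosine antibody, detected with anti-c-kit primary and HRP secondary antibody; absorbance at 450 nm.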

[2] = target: T2, PDGF-Ra (Homo sapiens, UniProt P16234); experiment: Inhibitory activity against PDGF-Ra phosphorylation by PDGF-AA stimulation using G292; assay type: cell-based; settings: for IC50: > means inhibition at indicated concentration not more than 50%, < and << not less than 50%, read-out: PDGF (E) IC50; for inhibition at 0.1 µM: G292, read-out: PDGF (E) inhibition (%) at 100 nM
T2 construct: host or cells: G-292 human osteosarcoma cells
T2 sequence (P16234 24-1089): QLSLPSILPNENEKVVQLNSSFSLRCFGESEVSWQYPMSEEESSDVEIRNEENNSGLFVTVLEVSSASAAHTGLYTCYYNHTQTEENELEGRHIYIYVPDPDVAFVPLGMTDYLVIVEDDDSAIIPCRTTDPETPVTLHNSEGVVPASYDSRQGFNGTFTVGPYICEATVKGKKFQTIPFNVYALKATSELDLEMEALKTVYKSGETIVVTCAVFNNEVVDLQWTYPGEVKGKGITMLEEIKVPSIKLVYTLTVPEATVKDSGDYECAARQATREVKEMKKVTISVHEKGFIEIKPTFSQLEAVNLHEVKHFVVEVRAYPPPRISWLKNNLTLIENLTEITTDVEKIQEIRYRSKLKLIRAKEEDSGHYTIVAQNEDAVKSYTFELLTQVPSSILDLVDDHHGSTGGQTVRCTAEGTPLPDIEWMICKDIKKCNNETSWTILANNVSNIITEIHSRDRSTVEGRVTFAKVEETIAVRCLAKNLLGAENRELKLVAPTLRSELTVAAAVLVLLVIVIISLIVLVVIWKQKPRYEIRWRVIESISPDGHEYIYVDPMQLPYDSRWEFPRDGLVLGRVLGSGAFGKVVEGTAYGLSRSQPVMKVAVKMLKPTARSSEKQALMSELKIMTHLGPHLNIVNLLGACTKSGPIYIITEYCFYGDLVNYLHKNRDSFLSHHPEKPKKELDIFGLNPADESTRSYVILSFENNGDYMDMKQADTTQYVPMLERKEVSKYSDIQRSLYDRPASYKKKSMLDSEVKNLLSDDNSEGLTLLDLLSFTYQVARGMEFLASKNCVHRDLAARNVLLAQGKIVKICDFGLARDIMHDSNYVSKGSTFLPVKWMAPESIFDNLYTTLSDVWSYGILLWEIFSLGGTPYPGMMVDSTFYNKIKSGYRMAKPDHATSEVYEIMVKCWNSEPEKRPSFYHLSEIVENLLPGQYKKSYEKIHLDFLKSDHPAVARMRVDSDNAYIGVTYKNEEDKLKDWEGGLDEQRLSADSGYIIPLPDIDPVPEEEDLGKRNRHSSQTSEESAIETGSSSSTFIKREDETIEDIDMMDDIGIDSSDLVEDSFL
Outline: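 Phospho-PDGF-Ra ELISA: capture with PY-20 antiphosphotyrosine, detection with anti-PDGF-Ra and peroxidase secondary, read at 450 nm. Lysates came from G-292 osteosarcoma cells starved in 0.1% FBS, compound-treated 1 hr at 37° C, and stimulated with 50 ng/ml PDGF-AA for 5 min.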

[3] = figure within parentheses in >100( ), at 100 nM

Row | Structure (SMILES) | inhibition at 1 µM [1] | IC50 [2] | inhibition at 0.1 µM [2, 3] | IC50 [1] | PDGF (E) inhibition (%) at 100 nM [2, 3]
1 | COc1cc2nccc(Oc3cc(C)c(NC(=S)NCCCN4CCN(C)CC4)cc3C)c2cc1OC [Example 556, N-{4-[(6,7-Dimethoxy-4-quinolyl)oxy]-2,5-dimethylphenyl}-N′-[3-(4-methylpiperazinyl)propyl]thiourea] | 28% | > 100 nM | 13% | – | –
2 | COc1cc2nccc(Oc3ccc(NC(=S)NCCCN4CCN(C)CC4)c(C)c3C)c2cc1OC [Example 557, N-{4-[(6,7-Dimethoxy-4-quinolyl)oxy]-2,3-dimethylphenyl}-N′-[3-(4-methylpiperazinyl)propyl]thiourea] | – | > 100 nM | – | 634 nM | 33%
3 | COc1cc2ncnc(Oc3ccc(NC(=S)NCCN(C)C)cc3)c2cc1OC [Example 559, N-{4-[(6,7-Dimethoxy-4-quinazolinyl)oxy]phenyl}-N′-(2-dimethylaminoethyl)thiourea] | – | 36 nM | – | 711 nM | –
4 | COc1cc2nccc(Oc3ccc(NC(=O)NC4CCN(Cc5ccccc5)C4)cc3)c2cc1OC (centres unmarked) [Example 560, N-(1-Benzyltetrahydro-1H-3-pyrrolyl)-N′-{4-[(6,7-dimethoxy-4-quinolyl)oxy]phenyl}urea] | – | 12 nM | – | 107 nM | –
5 | CCOC(=O)N1CCC(NC(=O)Nc2ccc(Oc3ccnc4cc(OC)c(OC)cc34)cc2)CC1 [Example 561, Ethyl 4-[({4-[(6,7-dimethoxy-4-quinolyl)oxy]anilino}carbonyl)amino]-1-piperidine-carboxylate] | – | < 10 nM | – | 54 nM | –
6 | COc1cc2nccc(Oc3ccc(NC(=O)NC4CC(C)(C)NC(C)(C)C4)cc3)c2cc1OC [Example 562, N-{4-[(6,7-Dimethoxy-4-quinolyl)oxy]-phenyl}-N′-(2,2,6,6-tetramethyl-4-piperidyl)urea] | 27% | 80 nM | – | – | –
7 | COc1cc2ncnc(Oc3ccc(NC(=O)NC4CC(C)(C)NC(C)(C)C4)cc3)c2cc1OC [Example 563, N-{4-[(6,7-Dimethoxy-4-quinazolinyl)oxy]phenyl}-N′-(2,2,6,6-tetramethyl-4-piperidyl)urea] | – | 54 nM | – | 406 nM | –

More lines, main results first:

Row | inhibition at 1 µM [1] | IC50 [2] | inhibition at 0.1 µM [2, 3] | IC50 [1] | Structure (SMILES) | PDGF (E) inhibition (%) at 100 nM [2, 3]
8 | – | 39 nM | – | 291 nM | COc1cc2nccc(Oc3ccc(NC(=O)N[C@@H]4CCN(Cc5ccccc5)C4)cc3)c2cc1OC [Example 564, N-[(3R)-1-Benzyltetrahydro-1H-3-pyrrolyl]-N′-{4-[(6,7-dimethoxy-4-quinolyl)oxy]phenyl}urea] | –
9 | – | 46 nM | – | 170 nM | COc1cc2nccc(Oc3ccc(NC(=O)N[C@H]4CCN(Cc5ccccc5)C4)cc3)c2cc1OC [Example 565, N-[(3S)-1-Benzyltetrahydro-1H-3-pyrrolyl]-N′-{4-[(6,7-dimethoxy-4-quinolyl)oxy]phenyl}urea] | –
10 | – | 17 nM | – | 276 nM | COc1cc2ncnc(Oc3ccc(NC(=O)N[C@@H]4CCN(Cc5ccccc5)C4)cc3)c2cc1OC [Example 566, N-[(3R)-1-Benzyltetrahydro-1H-3-pyrrolyl]-N′-{4-[(6,7-dimethoxy-4-quinazolinyl)oxy]phenyl}urea] | –
11 | 31% | > 100 nM | 28% | – | COc1cc2nccc(Oc3ccc(NC(=O)NC4CCN(Cc5ccccc5C)CC4)cc3)c2cc1OC [Example 568, N-{4-[(6,7-Dimethoxy-4-quinolyl)oxy]phenyl}-N′-[1-(2-methylbenzyl)-4-piperidyl]urea] | –
12 | – | 12 nM | – | 168 nM | COc1cc2ncnc(Oc3ccc(NC(=O)NC4CCN(Cc5ccccc5C)C4)cc3)c2cc1OC (centres unmarked) [Example 569, N-{4-[(6,7-Dimethoxy-4-quinazolinyl)oxy]phenyl}-N′-[1-(2-methylbenzyl)tetrahydro-1H-3-pyrrolyl]urea] | –
13 | – | 23 nM | – | 173 nM | COc1cc2ncnc(Oc3ccc(NC(=O)NC4CCN(Cc5ccccc5C)C4)c([N+](=O)[O-])c3)c2cc1OC (centres unmarked) [Example 570, N-{4-[(6,7-Dimethoxy-4-quinazolinyl)oxy]-2-nitrophenyl}-N′-[1-(2-methylbenzyl)tetrahydro-1H-3-pyrrolyl]urea] | –
